Data reported in patent US20200400567A1, “FUSION POLYPEPTIDE” (PEKING UNIVERSITY, priority 2017, published 2020).

What was measured:
Format in all cases: cell-based
[1] = system: human ADRA2A receptor
Method: The perfusion system was set on a microscope, and including a solution-introduced system, an imaging cell, and a suction pump. During the perfusion process, the imaging cell was placed above the objective lens of the inverted microscope, and the slide with cultured cells was placed in the cell. The perfusion experiments of different drugs were performed by controlling the switches of the different pipes of the solution-introduced system. The perfusion speed was set to one drop or so per second. In order to ensure the stability of the focal plane, the liquid level was kept constant at all times, and the flow rate of each solution was adjusted accordingly. The aspiration speed was adjusted to maintain the liquid level in the cell over the slide.
The region of interest (ROI) and background area were selected manually prior to the perfusion experiment. The exposure time was set to less than 50 ms and the acquisition frequency was 5 seconds. The solution used for the perfusion was a physiological solution 4k (pH 7.3-7.4), which was used to formulate the drug to the desired concentration. The running time of the program was set to no more than 5 min. After using 4k to balance and stabilize the cells for about 60-90 s, the cells were perfused with drug for 60 s, and then washed with 4k. The excitation light for green fluorescent protein was 488 nm, and for red fluorescent protein was 568 nm. The laser intensity was adjusted according to the working state of the laser and the expression level of the cells.
After the end of the program, the time-fluorescence intensity data sheet was exported. The background was subtracted from the ROI to get the corresponding fluorescence value Ft, and the average value of the fluorescence value before adding the drug was used as the starting fluorescence F0 to calculate
The detection of the response of the GRAB sensor to the ligand (ΔF/F0) was performed by drug perfusion. The cells were maintained in a standard physiological solution, and the formula thereof is: […]
Fluorescence imaging data was processed using ImageJ software. For the fluorescence performance of GRAB sensors in HEK293T cells and neurons, the entire cell body was selected as the data processing region. The change in the fluorescence signal was usually indicated by its relative intensity change. The background area without the expression of the sensor was first subtracted from the fluorescence signal, so as to obtain the true expression intensity of the fluorescent protein.

[2] = system: human ADRA2A receptor; assay: Response kinetics of GRAB-NE2.2 by photolysis of NPEC-caged-NE; details: GRAB-NE2.2, 10 μM Yohimbine
Method: 100 μM NPEC-NE was prepared in DMSO. The photo-uncaging experiment was performed on a Nikon laser scanning confocal microscope. The light stimulation was 80% of the 405 nm laser for 76 ms, and the stimulation area was 2×2 pixel rectangle (1 pixel=0.62 μm).
By caging neurotransmitters, neurotransmitters can be quickly activated and released in a certain area, and the signal of the sensor was fast scanned by a microscope to obtain the time constant for the change in fluorescence intensity after the sensor binds to the ligand. The experiment was performed in HEK293T cells using the neurotransmitter NPEC caged NE (i.e., NPEC-NE) (FIG. 29a), 405 nm laser for activating NPEC-caged NE, and GRAB-NE2.2.

[3] = system: human ADRA2A receptor; assay: GRAB-NE2.1 in cultured rat cortical neurons, drug perfusion; details: GRAB-NE2.1 in neurons
Method: Newborn Sprague-Dawley rats were used for the primary culture of rat neurons. After the skin was washed with alcohol, the head of newborn rat was dissected with surgical instruments, and the vascular membrane on the surface of the cortex was carefully removed after removing the brain. The cortical tissue was cut into pieces and placed in a 0.25% trypsin solution, and digested for 10 minutes in an incubator at 37° C. The digestion was terminated with a DMEM medium containing 5% FBS, and the cells were further isolated by slowly pipetting up and down ten times with a pipette. After standing for 5 minutes, the pellet containing the tissue debris was discarded and the upper layer solution was collected and centrifuged at 1000 rpm for 5 minutes in a centrifuge. Thereafter, the supernatant was discarded and the neurons were resuspended with the Neurobasal+B27 medium used for culturing the neurons. The density was calculated using a cell counting chamber. After that, the cells were diluted at a density of 0.5-1×10^6 cells/ml and plated on the slides coated with poly-lysine (Sigma). Primary neurons were cultured in the Neurobasal+B27 medium, and a half of the medium was exchanged every two days. […]
The optical signal changes of neurons expressing neurotransmitter sensors were detected by perfusion with a neurotransmitter solution.

[4] = system: human ADRA2A receptor; assay: GRAB-NE2.1 in primary cultured rat cardiomyocytes, drug perfusion; details: GRAB-NE2.1 in cardiomyocytes, 1 μM Yohimbine
Description: The GRAB-NE2.1 sensor was transfected into primary cultured rat cardiomyocytes by liposomes, and the optical signal changes for the ligand binding and affinity for ligand were detected by drug perfusion.

effect of blocker on NE concentration-dependent changes ([1]; GRAB-NE2.0, 10 nM to 100 μM NE, 1 μM Yohimbine): completely inhibited | effect of blocker on ligand-induced NE sensor signal changes ([1]; GRAB-NE2.0, Yohimbine 2 μM): can inhibit | effect of blocker on NE-induced fluorescence signal ([1]; GRAB-NE2.1, Yohimbine 2 μM): can inhibit | effect of blocker on photolysis-induced fluorescence change [2]: inhibited | effect of blocker on ligand-induced optical signal changes [3]: can inhibit | effect of blocker on NE reaction [4]: can inhibit
Structure (SMILES): COC(=O)[C@@H]1[C@H]2C[C@H]3c4[nH]c5ccccc5c4CCN3C[C@@H]2CC[C@@H]1O [Yohimbine]
